Counter-ions that a name gives are not always drawn.
What was measured:
[1] = BASF MSDS sheet; cited from earlier work
sciatic nerve = details: cited from earlier work
[2] = cited from earlier work
[3] = Solubility/loading of local anesthetic in oils, castor oil and semi-solid vehicle; type: physicochemical
[4] = limited by low solubility in the vehicle; cited from earlier work
[5] = in poly(lactic acid-co-castor oil), single injection

SMILES: CCCCN1CCCCC1C(=O)Nc1c(C)cccc1C (stereo not drawn) [bupivacaine hydrochloride]
- water solubility [1]: 600 mg/mL

SMILES: CCCCN1CCCCC1C(=O)Nc1c(C)cccc1C (stereo not drawn) [bupivacaine]
- sciatic nerve blockade prolonged to (sciatic nerve; 10% (w/v) in poly(sebacic-co-ricinoleic acid), from 8 hours): 30 h
- duration of nerve block (sciatic nerve; in poly(lactic acid-co-castor oil) at 10% (w/v)): 1 to 2 days
- duration of sensory blockade (sciatic nerve; in poly(lactic acid-co-castor oil) at 15% (w/v)): 96 h
- motor blockade (sciatic nerve; [5]): 64 h
- sensory blockade (sciatic nerve; [5]): 96 h
- release of bupivacaine from the oil ([2]; fractionated coconut oil, in less than two hours, rotating dialysis cell): 80%
- stored bupivacaine released during one week ([2]; from poly(lactic acid-co-castor oil)): 60%
- incorporated drug released over one week in vitro ([2]; from poly(sebacic-co-ricinoleic acid)): 70%
- solubility in corn oil [3]: 2.8 wt %
- solubility in olive oil [3]: 2.5 wt %
- solubility in sesame oil [3]: 3.0 wt %
- solubility in typical vegetable oils [3]: less than 3 wt %
- solubility in vegetable oil [3]: 2.5 wt %

SMILES: Cc1cccc(C)c1NC(=O)C1CCCCN1C (stereo not drawn) [mepivacaine]
- amount that can be loaded into polyorthoester vehicle [4]: about 3 wt %

— patent publication US10561606B2, “Injectable long-acting local anesthetic semi-solid gel formulations” (Mira Pharma Corporation, priority 2017, dated 2020)
